Results as given in US20160022675A1, “PROCESSES FOR PREPARING TETRAHYDROISOQUINOLINES” (BRISTOL-MYERS SQUIBB COMPANY, priority 2013, published 2016).
Like-named read-outs stand apart in the source and are kept apart here.

Tests used:
locomotor activity = assay: Locomotor activity, mouse; assay type: in vivo
Excerpt: To better understand the margin between doses of Compound 1-(4S) that are effective in the mouse tail suspension models and those that lead to monoamine-related side effects, locomotor activity was examined to assess psychostimulant properties and stereotypy was examined to assess more severe DA-related side effects. Increased body temperature, another effect that has been attributed to DA pharmacology, was also studied. In the mouse, Compound 1-(4S) increased locomotor activity and stereotypy scores at doses of 3.0 mg/kg and 10 mg/kg, respectively. Thus, the margin between the Compound 1-(4S) effective dose in the mouse tail suspension and increased locomotor activity was 10-fold and the margin versus activity in stereotypy was 30-fold. The thermogenic effect of Compound 1-(4S) was studied in mice and rats by measuring changes in rectal temperature following administration of the compound. […] The onset of the thermogenesis was earlier as the dose was increased. The levels of SERT and NET occupancy were over 80% and appeared saturated across the doses tested. The DAT occupancy was dose-dependent, with 55±5.7% at 1.0 mg/kg, 74±6% at 3.0 mg/kg, and 83±0.8% at 10 mg/kg. […] The onset of the temperature increase was earlier at the highest dose of 10 mg/kg. […] The DAT occupancy was 37±8.3%, 55±5.2%, and 71±1.7% at 1.0, 3.0, and 10 mg/kg, respectively. […]

SERT = SERT (Homo sapiens, UniProt P31645); assay: Competition binding, membranes from HEK cells overexpressing SERT; set-up: expressed in transfected cells; host or cells: HEK cells (membranes)
Sequence of SERT (P31645 whole entry): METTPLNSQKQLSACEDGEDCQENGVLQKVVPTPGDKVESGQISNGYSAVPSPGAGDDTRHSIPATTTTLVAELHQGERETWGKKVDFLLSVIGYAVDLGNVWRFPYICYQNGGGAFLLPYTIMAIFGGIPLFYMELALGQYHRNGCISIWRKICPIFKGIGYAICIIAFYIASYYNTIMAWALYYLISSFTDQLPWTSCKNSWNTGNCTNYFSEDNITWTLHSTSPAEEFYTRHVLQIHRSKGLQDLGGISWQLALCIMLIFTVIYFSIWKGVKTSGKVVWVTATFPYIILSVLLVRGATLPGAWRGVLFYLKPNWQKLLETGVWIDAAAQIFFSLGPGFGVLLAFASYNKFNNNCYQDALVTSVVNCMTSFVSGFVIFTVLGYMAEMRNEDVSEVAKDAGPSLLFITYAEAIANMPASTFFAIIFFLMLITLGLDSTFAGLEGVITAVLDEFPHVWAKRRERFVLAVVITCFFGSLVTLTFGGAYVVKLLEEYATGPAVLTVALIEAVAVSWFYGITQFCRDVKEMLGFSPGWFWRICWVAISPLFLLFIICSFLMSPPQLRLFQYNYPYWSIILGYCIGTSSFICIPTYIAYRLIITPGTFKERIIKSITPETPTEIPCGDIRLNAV
Method: (§1) Competition binding experiments were performed to determine the in vitro binding potencies (IC50 values) of Compound 1-(4S) for SERT, DAT, and NET. Membranes prepared from human embryonic kidney (HEK) cells overexpressing each transporter were employed. Radioligands were used at their respective affinity constant (Kd) concentrations for each transporter to enable direct comparisons of the IC50 values between assays.

[1] = Solubility profile (USP definition) in solvents; assay type: physicochemical
[2] = tested on: mouse tail suspension model of depression; assay: Mouse tail suspension model of depression; assay type: in vivo; conditions: PO
Method: (§2) The effects of Compound 1-(4S) in the mouse tail suspension model of depression and target site occupancy were assessed to compare occupancies associated with the behavioral response. The mouse tail suspension model is known the art. […] The lowest effective dose of Compound 1-(4S), 0.3 mg/kg, PO, decreased immobility by 77% relative to vehicle-treated controls. […] Administration of Compound 1-(4S) led to dose-dependent occupancy of SERT, NET, and DAT binding sites in the brain. At the lowest behaviorally-effective dose (0.3 mg/kg), occupancies were 86±1% of SERT, 76±3% of NET, and 28±3% of DAT. At 1 mg/kg, occupancies were 89±1%, 82±1% and 54±3% at SERT, NET, and DAT, respectively. Pharmacokinetics and pharmacodynamics (PD) in mouse, rat, and dog focused primarily on DAT occupancy since SERT and NET occupancies were saturated by drug for most, if not all, of the times studied. DAT occupancy increased as a function of increasing plasma exposure. The DAT occupancy to total plasma level could be fitted using a single binding site model and plasma level ED50 (the dose producing 50% effect) values could be calculated.

cocaine-lever responding = conditions: rat, in vivo; for cocaine-lever responding: po
Method: Compound 1-(4S) was evaluated in a cocaine discrimination assay in rats, a model used to address abuse potential. The cocaine discrimination assay is known the art Compound 1-(4S) was administered and the percentage of rats that responded by selecting the cocaine-associated lever was measured. […] Since the subjective effects of cocaine are evident 15 minutes after dosing, Compound 1-(4S) was tested at the earlier time point. […] In addition, the onset of this partial effect was slower than the onset of the subjective effects of cocaine in this model.

DAT [3] = molecular target: DAT (Canis lupus familiaris, UniProt B6EUL3); assay: DAT occupancy, dog; assay type: in vivo; conditions: single binding site model, read-out: total plasma concentration producing 50% effect (EC50), DAT occupancy
Sequence of DAT (Canis lupus familiaris, UniProt B6EUL3) (B6EUL3 1-617): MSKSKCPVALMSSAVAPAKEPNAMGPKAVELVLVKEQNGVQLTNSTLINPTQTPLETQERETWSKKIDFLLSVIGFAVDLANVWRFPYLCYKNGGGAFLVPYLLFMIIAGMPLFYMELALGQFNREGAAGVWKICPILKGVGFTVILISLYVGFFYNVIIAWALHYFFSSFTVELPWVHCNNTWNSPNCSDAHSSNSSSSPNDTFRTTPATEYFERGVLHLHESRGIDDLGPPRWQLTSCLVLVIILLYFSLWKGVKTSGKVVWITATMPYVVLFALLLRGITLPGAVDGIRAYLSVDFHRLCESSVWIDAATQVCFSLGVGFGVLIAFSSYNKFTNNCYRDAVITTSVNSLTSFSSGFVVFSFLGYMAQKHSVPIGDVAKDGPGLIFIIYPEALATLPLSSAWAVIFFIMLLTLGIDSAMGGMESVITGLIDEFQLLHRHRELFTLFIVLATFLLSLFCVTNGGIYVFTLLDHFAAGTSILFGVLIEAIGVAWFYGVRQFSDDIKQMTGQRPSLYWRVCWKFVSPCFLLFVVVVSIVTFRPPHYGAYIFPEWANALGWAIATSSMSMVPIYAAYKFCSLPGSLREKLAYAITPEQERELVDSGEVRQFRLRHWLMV
Method: as §2

NET = molecular target: T1, NET (Mus musculus, UniProt O55192); assay: NET occupancy in the brain, mouse; assay type: in vivo
T1 construct: from tissue; host or cells: mouse brain
T1 sequence (O55192 whole entry): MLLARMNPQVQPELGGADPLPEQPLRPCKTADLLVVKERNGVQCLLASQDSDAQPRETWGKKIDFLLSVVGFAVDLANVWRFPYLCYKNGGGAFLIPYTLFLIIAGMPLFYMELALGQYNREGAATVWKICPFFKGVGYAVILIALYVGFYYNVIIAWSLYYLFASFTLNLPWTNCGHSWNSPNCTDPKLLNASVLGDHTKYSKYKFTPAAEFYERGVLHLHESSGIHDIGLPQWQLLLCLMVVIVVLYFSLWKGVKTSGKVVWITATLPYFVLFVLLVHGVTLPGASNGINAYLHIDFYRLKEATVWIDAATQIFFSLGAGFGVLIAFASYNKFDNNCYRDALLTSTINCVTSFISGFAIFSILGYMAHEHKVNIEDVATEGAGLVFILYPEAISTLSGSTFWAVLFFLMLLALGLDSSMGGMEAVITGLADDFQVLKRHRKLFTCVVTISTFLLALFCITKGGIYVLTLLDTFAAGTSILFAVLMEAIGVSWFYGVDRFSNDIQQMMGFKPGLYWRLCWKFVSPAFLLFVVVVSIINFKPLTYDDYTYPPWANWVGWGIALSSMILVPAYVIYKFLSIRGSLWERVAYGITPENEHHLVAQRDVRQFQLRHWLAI
Method: as §2
To better understand the margin between doses of Compound 1-(4S) that are effective in the mouse tail suspension models and those that lead to monoamine-related side effects, locomotor activity was examined to assess psychostimulant properties and stereotypy was examined to assess more severe DA-related side effects. Increased body temperature, another effect that has been attributed to DA pharmacology, was also studied. In the mouse, Compound 1-(4S) increased locomotor activity and stereotypy scores at doses of 3.0 mg/kg and 10 mg/kg, respectively. Thus, the margin between the Compound 1-(4S) effective dose in the mouse tail suspension and increased locomotor activity was 10-fold and the margin versus activity in stereotypy was 30-fold. The thermogenic effect of Compound 1-(4S) was studied in mice and rats by measuring changes in rectal temperature following administration of the compound. […] The onset of the thermogenesis was earlier as the dose was increased. […]

DAT [4] = molecular target: DAT (Homo sapiens, UniProt Q01959); assay: Competition binding, membranes from HEK cells overexpressing DAT; set-up: expressed in transfected cells; host or cells: HEK cells (membranes); conditions: radioligand at Kd concentration; HEK cell membranes
Sequence of DAT (Homo sapiens, UniProt Q01959) (Q01959 whole entry): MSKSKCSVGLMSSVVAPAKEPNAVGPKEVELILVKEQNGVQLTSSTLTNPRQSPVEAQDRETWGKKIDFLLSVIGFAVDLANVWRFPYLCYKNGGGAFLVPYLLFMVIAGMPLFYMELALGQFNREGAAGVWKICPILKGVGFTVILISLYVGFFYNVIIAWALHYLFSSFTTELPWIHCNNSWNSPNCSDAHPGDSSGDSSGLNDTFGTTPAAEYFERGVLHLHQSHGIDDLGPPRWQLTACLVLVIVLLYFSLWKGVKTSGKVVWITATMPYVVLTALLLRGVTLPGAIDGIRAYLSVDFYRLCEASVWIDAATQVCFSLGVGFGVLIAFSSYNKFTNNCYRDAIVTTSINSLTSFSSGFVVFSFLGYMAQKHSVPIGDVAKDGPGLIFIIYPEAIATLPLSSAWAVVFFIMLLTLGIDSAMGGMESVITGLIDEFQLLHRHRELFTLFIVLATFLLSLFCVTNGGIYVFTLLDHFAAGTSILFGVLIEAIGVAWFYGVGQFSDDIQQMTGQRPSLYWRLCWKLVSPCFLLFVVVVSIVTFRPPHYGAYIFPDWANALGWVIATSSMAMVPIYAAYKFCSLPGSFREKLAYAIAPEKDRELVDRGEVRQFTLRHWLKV
Method: as §1

CN1Cc2cc(-c3ccc(N)nn3)ccc2[C@H](c2ccc3ccccc3c2)C1 [Compound 1-(4S), 6-[(4S)-1,2,3,4-tetrahydro-2-methyl-4-(2-naphthalenyl)-7-isoquinolinyl]-3-pyridazinamine]
dose that increased locomotor activity (locomotor activity): 3.0 mg/kg
margin between effective dose in mouse tail suspension and increased locomotor activity (locomotor activity): 10 fold
IC50 (SERT): 1.08 ± 0.09 nM
Solubility profile (USP definition) ([1]; N,N-dimethylacetamide, dimethylsulfoxide): soluble: N,N-dimethylacetamide, dimethylsulfoxide
Solubility profile (USP definition) ([1]; PEG 400): sparingly soluble: PEG 400
Solubility profile (USP definition) ([1]; acetonitrile, ethyl acetate, n-butanol): very slightly soluble: acetonitrile, ethyl acetate,
Solubility profile (USP definition) ([1]; isopropanol, acetone, ethanol, methanol, propylene glycol, dichloromethane): slightly soluble: isopropanol, acetone, ethanol,
Solubility profile (USP definition) ([1]; n-heptane): practically insoluble: n-heptane
Solubility profile (USP definition) ([1]; tetrahydrofuran): freely soluble: tetrahydrofuran
decrease in immobility relative to vehicle-treated controls ([2]; 0.3 mg/kg): 77%
decrease in immobility ([2]; 1.0 mg/kg): 91%
lowest effective dose, tail suspension [2]: 0.3 mg/kg
substitution for the cocaine stimulus (cocaine-lever responding): partially substituted for the cocaine stimulus
cocaine-lever responding (cocaine-lever responding; 0.1 mg/kg, 60 min): less than 1%
cocaine-lever responding (cocaine-lever responding; 0.3 mg/kg, 15 min): 11%
cocaine-lever responding (cocaine-lever responding; 0.3 mg/kg, 60 min): 53%
cocaine-lever responding (cocaine-lever responding; 1 mg/kg, 15 min): 10%
cocaine-lever responding (cocaine-lever responding; 3 mg/kg, 15 min): 28%
EC50 (DAT [3]): 103 nM
receptor occupancy at 0.3 mg/kg (NET; mouse brain, 0.3 mg/kg, tail suspension study): 76 ± 3%
receptor occupancy at 1 mg/kg (NET; mouse brain, 1 mg/kg, tail suspension study): 82 ± 1%
NET occupancy (NET; mouse, thermogenesis study, across doses 1, 3, 10 mg/kg): over 80%
IC50 (DAT [4]): 5.67 ± 0.36 nM
